What was measured:
[1] = biological target: T1, Vitamin D3 receptor (Mus musculus) (UniProt P48281); test: Effect on Ca level in mouse serum relative to 1-alpha,25(OH)2D3 treatment; type: functional, in vivo
T1 sequence (whole entry): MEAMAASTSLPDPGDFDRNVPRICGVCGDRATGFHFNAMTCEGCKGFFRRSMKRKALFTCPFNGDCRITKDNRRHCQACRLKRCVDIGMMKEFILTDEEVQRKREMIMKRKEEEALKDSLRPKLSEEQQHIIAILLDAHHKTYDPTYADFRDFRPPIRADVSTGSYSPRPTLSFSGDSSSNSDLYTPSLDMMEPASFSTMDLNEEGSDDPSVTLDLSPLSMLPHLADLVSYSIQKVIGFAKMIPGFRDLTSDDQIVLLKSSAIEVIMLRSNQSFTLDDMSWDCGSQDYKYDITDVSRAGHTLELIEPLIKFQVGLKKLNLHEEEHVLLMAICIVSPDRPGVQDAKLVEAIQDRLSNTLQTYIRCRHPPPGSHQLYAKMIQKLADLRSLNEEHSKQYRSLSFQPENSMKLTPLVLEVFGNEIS

[2] = biological target: T2, Vitamin D3 receptor (Sus scrofa) (UniProt A3RGC1); test: Binding affinity for pig nuclear vitamin D receptor relative to 1-alpha,25(OH)2D3
T2 sequence (whole entry): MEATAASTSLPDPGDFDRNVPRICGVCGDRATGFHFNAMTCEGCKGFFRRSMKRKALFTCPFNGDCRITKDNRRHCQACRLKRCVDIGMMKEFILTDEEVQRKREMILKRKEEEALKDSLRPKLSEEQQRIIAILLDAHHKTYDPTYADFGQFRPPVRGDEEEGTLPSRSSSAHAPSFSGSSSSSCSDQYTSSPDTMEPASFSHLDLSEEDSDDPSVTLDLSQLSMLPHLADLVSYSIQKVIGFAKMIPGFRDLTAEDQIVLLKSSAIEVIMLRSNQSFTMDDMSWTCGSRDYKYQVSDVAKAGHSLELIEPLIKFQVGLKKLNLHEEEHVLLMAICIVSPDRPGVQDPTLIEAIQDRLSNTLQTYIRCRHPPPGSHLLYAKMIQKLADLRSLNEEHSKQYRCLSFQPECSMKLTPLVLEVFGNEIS

[3] = biological target: T3, Vitamin D3 receptor (Homo sapiens) (UniProt P11473); test: Antiproliferative activity in human breast cancer MCF-7 cells relative to 1-alpha,25(OH)2D3; type: functional, cell-based; details: MCF7
T3 sequence (whole entry): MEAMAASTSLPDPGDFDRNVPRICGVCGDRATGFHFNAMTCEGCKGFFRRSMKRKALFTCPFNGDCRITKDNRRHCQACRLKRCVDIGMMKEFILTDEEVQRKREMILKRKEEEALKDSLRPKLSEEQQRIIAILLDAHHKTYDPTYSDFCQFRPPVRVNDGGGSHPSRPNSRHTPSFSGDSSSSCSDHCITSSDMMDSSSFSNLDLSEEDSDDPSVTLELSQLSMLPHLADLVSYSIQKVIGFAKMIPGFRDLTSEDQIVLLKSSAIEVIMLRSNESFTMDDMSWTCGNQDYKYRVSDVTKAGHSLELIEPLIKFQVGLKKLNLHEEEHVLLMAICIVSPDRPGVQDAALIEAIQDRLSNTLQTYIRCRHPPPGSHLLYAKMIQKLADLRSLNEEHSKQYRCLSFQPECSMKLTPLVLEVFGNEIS

[4] = biological target: T3, Vitamin D3 receptor (Homo sapiens); test: Differentiation activity in human leukemia HL-60 cells relative to 1-alpha,25(OH)2D3; type: functional, cell-based
HL-60 = test: Prodifferentiating activity of compound on human leukemia HL-60 cells was determined; type: functional
MCF7 = test: Antiproliferative activity on human breast cancer MCF-7 cells was determined; type: functional
Mus musculus = organism: Mus musculus; test: Effect of compound on Ca level in mice blood serum was determined; type: functional
[5] = biological target: T2, Vitamin D3 receptor (Sus scrofa); test: Binding affinity for pig nuclear vitamin D receptor

## CC(C)(O)CCO[C@H]1CC[C@]2(CCC/C(=C\C=C3C[C@@H](O)C[C@H](O)C3)C2)CC1
[1]
  Activity: < 0.25
[2]
  Activity: < 0.1
[3]
  Activity: 7
[4]
  Activity: 6

## C=C1/C(=C/C=C2/CCC[C@]3(CC[C@H](OCCC(C)(C)O)CC3)C2)C[C@@H](O)C[C@@H]1O
[1]
  Activity: < 0.25
[2]
  Activity: < 0.1
[3]
  Activity: 0
[4]
  Activity: < 1

## CC(C)(O)CCO[C@H]1CC[C@@]2(CCC/C(=C\C=C3C[C@@H](O)C[C@H](O)C3)C2)CC1
[1]
  Activity: < 0.25
[2]
  Activity: < 0.1
[3]
  Activity: 60
[4]
  Activity: 8

## C=C1/C(=C\C=C2/CCC[C@]3(CC[C@@H](OCCC(C)(C)O)CC3)C2)C[C@@H](O)C[C@@H]1O
[1]
  Activity: < 0.25
[2]
  Activity: 0.5
[3]
  Activity: 10

## C=C1/C(=C\C=C2/CCC[C@]3(C)[C@@H]([C@H](C)CCCC(C)(C)O)CC[C@@H]23)C[C@@H](O)C[C@@H]1O [CALCITRIOL]
HL-60
  Activity: 100
MCF7
  Activity: 100
Mus musculus
  Activity: 100
[5]
  Activity: 100

Source: ChEMBL document CHEMBL1137110, “Synthesis and biological activity of 22-oxa CD-ring modified analogues of 1alpha,25-dihydroxyvitamin D3: spiro[5.5]undecane CF-ring analogues” (2004)
